BindingDB's records for patent US12440484 (Chong Kun Dang Pharmaceutical, 2025)

What was measured:
Histone deacetylase 6 = biological target: T1, Histone deacetylase 6 (Homo sapiens, UniProt Q9UBN7); assay: Identification of HDAC Enzyme Activity Inhibition (In Vitro)
T1 sequence (Q9UBN7 whole entry): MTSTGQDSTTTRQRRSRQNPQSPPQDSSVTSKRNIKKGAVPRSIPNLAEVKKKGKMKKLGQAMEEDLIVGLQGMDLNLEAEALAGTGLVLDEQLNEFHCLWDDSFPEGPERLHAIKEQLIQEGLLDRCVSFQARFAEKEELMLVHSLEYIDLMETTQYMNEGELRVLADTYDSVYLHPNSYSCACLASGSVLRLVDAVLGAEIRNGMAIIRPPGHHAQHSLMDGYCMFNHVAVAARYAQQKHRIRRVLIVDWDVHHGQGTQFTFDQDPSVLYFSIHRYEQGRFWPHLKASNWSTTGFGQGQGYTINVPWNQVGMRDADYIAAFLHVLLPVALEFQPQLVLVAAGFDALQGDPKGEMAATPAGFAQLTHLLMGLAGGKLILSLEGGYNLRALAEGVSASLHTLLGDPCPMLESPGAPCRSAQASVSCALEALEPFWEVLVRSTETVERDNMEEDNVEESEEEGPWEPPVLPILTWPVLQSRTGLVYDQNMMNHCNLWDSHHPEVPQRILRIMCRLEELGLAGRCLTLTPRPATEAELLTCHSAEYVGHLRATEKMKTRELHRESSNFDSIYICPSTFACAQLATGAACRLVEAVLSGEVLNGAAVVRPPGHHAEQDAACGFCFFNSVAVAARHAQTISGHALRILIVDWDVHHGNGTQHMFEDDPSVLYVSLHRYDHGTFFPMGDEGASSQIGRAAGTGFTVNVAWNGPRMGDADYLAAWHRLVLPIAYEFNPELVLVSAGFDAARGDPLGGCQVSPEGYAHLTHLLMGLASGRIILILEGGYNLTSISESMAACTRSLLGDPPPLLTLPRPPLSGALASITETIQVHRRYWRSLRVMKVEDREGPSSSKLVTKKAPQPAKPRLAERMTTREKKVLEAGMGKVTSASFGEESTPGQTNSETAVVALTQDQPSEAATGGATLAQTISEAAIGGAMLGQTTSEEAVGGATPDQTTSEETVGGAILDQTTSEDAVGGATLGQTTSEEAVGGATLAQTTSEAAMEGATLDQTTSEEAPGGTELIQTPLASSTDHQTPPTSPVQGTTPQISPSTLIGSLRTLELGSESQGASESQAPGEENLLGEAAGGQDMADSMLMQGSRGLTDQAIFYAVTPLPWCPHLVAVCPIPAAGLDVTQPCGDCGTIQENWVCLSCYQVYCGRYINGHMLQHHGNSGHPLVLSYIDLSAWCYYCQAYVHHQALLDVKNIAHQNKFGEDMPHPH
Protocol: (§1) For a HDAC1 assay, samples were treated at a concentration of 100, 1000 and 10000 nM. For a HDAC6 assay, samples were treated at a concentration of 0.1, 1, 10, 100 and 1000 nM.

Histone deacetylase 1 = Histone deacetylase 1 (Homo sapiens, UniProt Q13547); assay: as above
Chain of Histone deacetylase 1 (Q13547 whole entry): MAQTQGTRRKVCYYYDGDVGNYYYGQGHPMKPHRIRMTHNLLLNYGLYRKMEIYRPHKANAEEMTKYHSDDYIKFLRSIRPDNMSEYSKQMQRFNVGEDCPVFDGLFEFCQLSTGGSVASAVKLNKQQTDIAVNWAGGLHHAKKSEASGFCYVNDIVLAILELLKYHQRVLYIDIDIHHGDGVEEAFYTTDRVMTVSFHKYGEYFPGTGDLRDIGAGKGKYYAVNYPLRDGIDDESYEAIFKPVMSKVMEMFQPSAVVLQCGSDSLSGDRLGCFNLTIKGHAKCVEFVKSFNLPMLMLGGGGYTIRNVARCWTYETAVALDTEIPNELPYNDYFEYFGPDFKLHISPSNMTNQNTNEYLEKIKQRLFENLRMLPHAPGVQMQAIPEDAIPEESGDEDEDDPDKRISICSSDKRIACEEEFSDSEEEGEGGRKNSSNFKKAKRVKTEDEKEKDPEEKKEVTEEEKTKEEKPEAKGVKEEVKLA
Protocol: as §1

IC50 (Histone deacetylase 6) [µM] | IC50 (Histone deacetylase 1) [µM] | Compound
0.455 | > 10 | O=c1c2ccccc2n(CCN2CCCCC2)c(=O)n1Cc1ccc(-c2nnc(C(F)F)o2)cc1F [US12440484, Compound 10]
0.043 | > 10 | CC1(C)C(=O)N(Cc2ccc(-c3nnc(C(F)F)o3)cn2)C(=O)c2ccc(N3CCCCC3)cc21 [US12440484, Compound 27]
0.052 | > 10 | CC1(C)C(=O)N(Cc2ccc(-c3nnc(C(F)F)o3)cn2)C(=O)c2ccc(N3CCN(CC(F)(F)F)CC3)cc21 [US12440484, Compound 141]
0.033 | > 10 | COCCN1CCC(c2ccc3c(c2)C(=O)N(Cc2ccc(-c4nnc(C(F)F)o4)cn2)C(=O)C3(C)C)CC1 [US12440484, Compound 151]
